From patent US10167262B2, “Herbicidal substituted 3-arylpyrazoles” (FMC CORPORATION, priority 2014, dated 2019)
Several values for one entry are separate records, joined by “and”; a condition that tells them apart may be missing. Equal values may be shown once.

Assays:
Assay in all cases: Test H postemergence mixture test of compound 39 with commercial herbicides, observed and Colby expected effect 0-100
Assay type in all cases: in vivo
Conditions in all cases: Cmpd 39 alone, 14 days after treatment
[1] = system: waterhemp (common waterhemp, AMATA, Amaranthus rudis)
Excerpt: (§1) This test evaluated the effect of mixtures of compound 39 with three commercial herbicides on five plant species. Seeds of plant species selected from corn (ZEAMD, Zea mays), soybean (GLXMA, Glycine max), palmer pigweed (AMAPA, Amaranthus palmeri), waterhemp (common waterhemp, AMATA, Amaranthus rudis), and Kochia (KCHSC, Kochia scoparia) were planted in pots containing Redi-Earth® planting medium (Scotts Company, 14111 Scottslawn Road, Marysville, Ohio 43041) comprising spaghnum peat moss, vermiculite, wetting agent and starter nutrients and treated with postemergence applications of test chemicals formulated in a non-phytotoxic solvent mixture which included a surfactant and applied using a volume of 299 L/ha. Each treatment was replicated four times. Treated plants and controls were maintained in a greenhouse using supplemental lighting to maintain a photoperiod of about 16 h; daytime and nighttime temperatures were about 24-30° C. and 19-21° C., respectively. Nutrients were applied using a balanced fertilizer applied through the watering system. At 14 days after treatment, all species were compared to controls and visually evaluated. Plant response ratings were calculated as the mean of the four replicates, are summarized in Tables H1 through H6, and are based on a scale of 0 to 100 where 0 is no effect and 100 is complete control. A dash (-) response means no test result.
(§2) Colby's Equation was used to determine the herbicidal effects expected from the mixtures. Colby's Equation (Colby, S. R. “Calculating Synergistic and Antagonistic Responses of Herbicide Combinations,” Weeds, 15(1), pp 20-22 (1967)) calculates the expected additive effect of herbicidal mixtures and for two active ingredients is of the form: Pa+b=Pa+Pb−(PaPb/100) • where • Pa+b is the percentage effect of the mixture expected from additive contribution of the individual components: • Pa is the observed percentage effect of the first active ingredient at the same use rate as in the mixture, and • Pb is the observed percentage effect of the second active ingredient at the same use rate as in the mixture. In the following Tables, rates are shown in grams of active ingredient per hectare (g a.i./ha); “Obsd.” is the observed effect. “Exp.” is the expected effect calculated from Colby's Equation.

[2] = system: palmer pigweed (AMAPA, Amaranthus palmeri)
Excerpt: as §1, §2

corn (ZEAMD, Zea mays) = system: corn (ZEAMD, Zea mays)
Excerpt: as §1, §2

## C#CCn1cc(C(=O)c2ccccc2)c(-c2cc(Cl)cc(Cl)c2)n1 [Compound 39, [3-(3,5-dichlorophenyl)-1-(2-propyn-1-yl)-1H-pyrazol-4-yl]phenylmethanone]
[1]; 16 g a.i./ha
  AMATA Obsd. (observed effect): 75
[1]; 31 g a.i./ha
  AMATA Obsd. (observed effect): 88 and 83
[1]; 62 g a.i./ha
  AMATA Obsd. (observed effect): 79
[2]; 16 g a.i./ha
  AMAPA Obsd. (observed effect): 55
[2]; 31 g a.i./ha
  AMAPA Obsd. (observed effect): 86 and 78
[2]; 62 g a.i./ha
  AMAPA Obsd. (observed effect): 79 and 76
Corn (ZEAMD, Zea mays); 16 g a.i./ha
  ZEAMD Obsd. (observed effect): 0
Corn (ZEAMD, Zea mays); 31 g a.i./ha
  ZEAMD Obsd. (observed effect): 0
Corn (ZEAMD, Zea mays); 62 g a.i./ha
  ZEAMD Obsd. (observed effect): 0
